Test results as given in patent publication US20110160147A1, “NOVEL DUAL TARGETING A[…]” (priority 2008, published 2011).
Like-named read-outs stand apart in the source and are kept apart here.

Key:
[1] = test system: A2780 ovarian carcinoma cells; experiment: Cytotoxicity, sulphorodamine B test (A2780); type: cell-based, human
Description: (§1) To evaluate the effect of the compound on survival cells, the sulphorodamine B test was used. To measure the effects of the compounds on cell growth, PC3 human prostate carcinoma and A2780 human ovarian carcinoma cells were used. A2780 and PC3 tumour cells were grown RPMI 1640 containing 10% fetal bovine serum (GIBCO).
(§2) Tumour cells were seeded in 96-well tissue culture plates at approximately 10% confluence and were allowed to attach and recover for at least 24 h. Varying concentrations of the drugs were then added to each well to calculate their IC50 value (the concentration which inhibits the 50% of cell survival). The plates were incubated at 37° C. for 72 h. At the end of the treatment, the plates were washed by removal of the supernatant and addition of PBS 3 times. 200 μl PBS and 50 μl of cold 80% trichloroacetic acid (TCA) were added. The plates were incubated on ice for at least 1 h. TCA was removed and the plates were washed 3 times by immersion in distilled-water and dried on paper and at 40° C. for 5 min. Then 200 μl of 0.4% sulphorodamine B in 1% acetic acid were added. The plates were incubated at RT for further 30 min. Sulphorodamine B was removed, the plates were washed by immersion in 1% acetic acid 3 times, then they were dried on paper and at 40° C. for 5 min. Then 200 μl Tris 10 mM were added, the plates were kept under stirring for 20 min. The cell survival was determined by means of optical density using a Multiskan spectrofluorimeter at 540 nm. The amount of cells killed was calculated as the percentage decrease in sulphorodamine B binding compared with control cultures.
(§3) The IC50 values were calculated with the “ALLFIT” program.

[2] = test system: A2780 ovarian carcinoma cells; type: cell-based, human
Description: (§4) A2780 human ovarian carcinoma and PC3 prostate carcinoma cells were grown in medium culture RPMI 1640 containing 10% fetal bovine serum and 50 μg/ml gentamycin sulfate. Cells were maintained in a 37° C. incubator with saturated humidity and an atmosphere of 95% air and 5% CO2. A2780 tumour cell line expresses high levels of αvβ5 integrin, and PC3 low levels of both integrins.
(§5) In 96-well tissue culture plates, 50 μl/well of a solution of vitronectin (5 μg/ml) were added for 2 h at room temperature. The solutions were removed upsetting the plates. 50 μl/well of a solution 1% BSA were added for 1 h at RT. The plates were washed by addition of 100 μl/well of medium culture RPMI 1640 without fetal calf serum (FCS). The washing was repeated twice. The molecules were added at different concentrations in the range between 0.039 μM and 20 μM. The solutions were prepared by dilution 1:2 in medium culture without FCS. Tumour cells in the flasks were washed in saline solution before to be detached by scraper, by the addition of 5 ml of medium culture without FCS and 1% BSA. Tumour cells were counted after resuspension and added at an appropriate cellular density (40000-50000 cells/well). The plates were incubated for 1 h at 37° C. in humidified incubator with 5% CO2. Then, the solutions were removed upsetting the plates and washed once with 200 μl/well of PBS with Ca^2+ e Mg^2+. Tumour cells were fixed with 100 μl of a solution 4% paraformaldehyde in 0.2 M Sorensen phosphate buffer pH 7.2-7.4 for 10 min at RT The plates were upset and 100 μl of 1% Toluidine Blu solution were added for 10 min at RT The plates were washed twice by immersion in bi-distilled water and then dried at 60° C. in thermostat incubator (Kottermann). 100 μl/well of 1% SDS were added. The plates were kept under stirring for 20 min at RT and were then evaluated by Victor 1420 multilabel counter (Wallac) at 600 nm.
(§6) The IC50 value as parameter to measure the inhibiting effect of the molecules on tumour cell adhesion to vitronectin was evaluated using “ALLFIT” computer program.

[3] = test system: PC3 prostate carcinoma cells; type: cell-based, human
Description: as §4, §5, §6

[4] = test system: PC3 prostate carcinoma cells; experiment: Cytotoxicity, sulphorodamine B test (PC3); type: cell-based, human
Description: as §1, §2, §3

[5] = Stability of the linker-containing conjugate in various assays; settings: various assays conducted
Source text: A number of linker-containing peptides as substrates of Cathepsin B have already been described, for example, Phe-Lys, Val-Cit (Dubowchick G. M., et al, Bioconjugate Chem., 2002, 13, 4, 855); Gly-Phe-Leu-Gly (Rejmanova P., et al, Biomaterials, 1985, 6, 1, 45); D-Ala-Phe-Lys (de Groot F. M. H., et al., Mol. Cancer. Ther., 2002, 1, 901). Some of these peptides have been successfully applied when attached to antibodies, which, due to their bulkiness, can shield them from plasma peptidases. However, when we experimented these peptide sequences applied to conjugates containing small ligands, as in the case of oligopeptides, they were immediately cleaved releasing the cytotoxic agent into the circulation, contrary to what described by other authors. […] The above cited paper from Dubowchick deals with cathepsin B-labile dipeptide ligands. The same authors also published four years before another study about the influence of the amino acid at position P2 when Cit amino acid was at P1 position, concluding that the best amino acid in such a position was Val because of hydrophobic interactions within the binding site of cathepsin B (Dubowchick G. M., et al, Bioorg. Med. Chem., 1998, 8, 3341), meanwhile the analogue containing Ala instead of Val contributed to slower noticeably the release of doxorubicin, which was clearly contrary to the objective of the study.

αvβ5 receptors = αvβ5 receptors (Homo sapiens, UniProt P06756+P18084); experiment: Solid-phase binding assay, inhibition of [125I]Echistatin binding to αvβ5 receptors
Description: (§7) The receptor binding assays were performed as described (Orlando R. A., et al., J. Biol. Chem. 1991, 266, 19543). αvβ3 and αvβ5 were diluted to 500 ng/ml and 1 μg/ml, respectively, in coating buffer (20 mM Tris, pH 7.4, 150 mM NaCl, 2 mM CaCl2, 1 mM MgCl2, 1 mM MnCl2) and an aliquot of 100 μL was added to a 96-well microtiter plate and incubated overnight at 4° C. The plate was washed once with blocking/binding buffer (50 mM Tris, pH 7.4, 100 mM NaCl, 2 mM CaCl2, 1 mM MgCl2, 1 mM MnCl2, 1% bovine serum albumin), and then was incubated for additional 2 h at RT The plate was rinsed twice with the same buffer and incubated for 3 h at RT with radiolabeled ligand [^125I]Echistatin (Amersham Pharmacia Biotech) 0.05 nM (0.1 nM for αv β5) in the presence of competing inhibitors. After the incubation, the wells were washed and radioactivity was determined with a gamma-counter (Packard). Non-specific binding of ligand was determined with molar excess (200 nM) of cold echistatin.
(§8) The IC50 values reported in Tables 1 and 2 were calculated as the concentrations of compounds required for 50% inhibition of echistatin binding and were estimated by the Prism GraphPad program. The Ki of the competing ligands were calculated according to the Cheng-Prusoff equation (Cheng Y. C., et al., Biochem. Pharmacol., 1973, 22, 3099). Values are the mean±log standard error of triplicate determinations from two independent experiments.

αvβ3 receptor = αvβ3 receptor (Homo sapiens, UniProt P05106+P06756); experiment: Solid-phase binding assay, inhibition of [125I]Echistatin binding to αvβ3 receptor
Description: as §7, §8

[6] = A2780, 72 h of treatment, read-out: IC50 ± SD, cytotoxicity
[7] = A2780, 1 h of treatment, read-out: IC50 ± SD, antiadhesive effect to vitronectin
[8] = PC3, 1 h of treatment, read-out: IC50 ± SD, antiadhesive effect to vitronectin
[9] = PC3, 72 h of treatment, read-out: IC50 ± SD, cytotoxicity
[10] = αvβ5, Cheng-Prusoff equation, read-out: Ki
[11] = αvβ5, [125I]Echistatin 0.1 nM, read-out: IC50 ± log SE, inhibition of [125I]Echistatin binding (converted)
[12] = αvβ3, Cheng-Prusoff equation, read-out: Ki
[13] = αvβ3, [125I]Echistatin 0.05 nM, read-out: IC50 ± log SE, inhibition of [125I]Echistatin binding (converted)

Chain of αvβ3 receptor (P06756 31-889 limits assumed): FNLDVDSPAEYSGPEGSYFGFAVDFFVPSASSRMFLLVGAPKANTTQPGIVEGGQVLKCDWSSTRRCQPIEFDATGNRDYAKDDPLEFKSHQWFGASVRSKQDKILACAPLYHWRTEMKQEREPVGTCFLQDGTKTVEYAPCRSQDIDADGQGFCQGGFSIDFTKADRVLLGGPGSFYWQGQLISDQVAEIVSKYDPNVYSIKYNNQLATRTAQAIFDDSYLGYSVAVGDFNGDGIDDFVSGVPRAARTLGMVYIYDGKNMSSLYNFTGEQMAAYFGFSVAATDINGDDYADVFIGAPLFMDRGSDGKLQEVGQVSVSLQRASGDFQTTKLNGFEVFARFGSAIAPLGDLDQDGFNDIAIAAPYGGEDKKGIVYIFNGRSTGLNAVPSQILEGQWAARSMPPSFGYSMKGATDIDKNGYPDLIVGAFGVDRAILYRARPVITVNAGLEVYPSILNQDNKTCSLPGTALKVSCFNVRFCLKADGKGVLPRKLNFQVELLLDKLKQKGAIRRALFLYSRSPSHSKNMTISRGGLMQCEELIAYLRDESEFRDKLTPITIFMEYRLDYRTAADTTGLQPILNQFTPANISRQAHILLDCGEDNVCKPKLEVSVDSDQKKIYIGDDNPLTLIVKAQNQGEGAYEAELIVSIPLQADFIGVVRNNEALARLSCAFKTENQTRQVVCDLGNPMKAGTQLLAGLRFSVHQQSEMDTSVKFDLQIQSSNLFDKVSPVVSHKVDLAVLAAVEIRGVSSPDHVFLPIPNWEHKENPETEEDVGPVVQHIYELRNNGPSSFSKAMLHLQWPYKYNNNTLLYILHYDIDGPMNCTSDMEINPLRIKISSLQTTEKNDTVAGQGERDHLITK
Chain of αvβ3 receptor (P06756 891-1048 partner limits assumed): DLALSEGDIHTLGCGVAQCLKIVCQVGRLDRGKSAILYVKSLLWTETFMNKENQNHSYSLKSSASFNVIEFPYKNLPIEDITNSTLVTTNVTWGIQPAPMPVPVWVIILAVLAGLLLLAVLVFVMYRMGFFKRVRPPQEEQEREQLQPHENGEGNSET
Chain of αvβ3 receptor (P05106 27-788): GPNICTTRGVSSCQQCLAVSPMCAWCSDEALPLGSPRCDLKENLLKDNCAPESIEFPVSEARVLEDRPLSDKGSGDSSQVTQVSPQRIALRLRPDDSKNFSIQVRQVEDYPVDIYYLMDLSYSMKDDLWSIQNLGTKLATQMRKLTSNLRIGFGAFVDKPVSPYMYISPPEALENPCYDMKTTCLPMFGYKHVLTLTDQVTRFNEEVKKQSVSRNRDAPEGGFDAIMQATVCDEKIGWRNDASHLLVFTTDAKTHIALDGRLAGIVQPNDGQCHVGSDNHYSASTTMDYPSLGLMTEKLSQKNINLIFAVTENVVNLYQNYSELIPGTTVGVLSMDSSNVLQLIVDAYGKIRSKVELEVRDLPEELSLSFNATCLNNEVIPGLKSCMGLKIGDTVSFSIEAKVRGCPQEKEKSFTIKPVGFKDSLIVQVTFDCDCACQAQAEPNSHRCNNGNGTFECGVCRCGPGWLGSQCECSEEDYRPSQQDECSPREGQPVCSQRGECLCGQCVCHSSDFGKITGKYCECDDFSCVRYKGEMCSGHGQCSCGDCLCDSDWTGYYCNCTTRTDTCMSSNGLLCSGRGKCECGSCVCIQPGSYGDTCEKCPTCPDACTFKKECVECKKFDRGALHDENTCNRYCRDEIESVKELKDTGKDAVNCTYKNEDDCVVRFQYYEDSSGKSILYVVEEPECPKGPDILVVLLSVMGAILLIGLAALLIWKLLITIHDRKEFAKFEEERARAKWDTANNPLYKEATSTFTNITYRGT
Chain of αvβ5 receptors (P06756 31-889 limits assumed): as the sequence (P06756 31-889 limits assumed) above
Chain of αvβ5 receptors (P06756 891-1048 partner limits assumed): as the sequence (P06756 891-1048 partner limits assumed) above
Chain of αvβ5 receptors (P18084 24-799): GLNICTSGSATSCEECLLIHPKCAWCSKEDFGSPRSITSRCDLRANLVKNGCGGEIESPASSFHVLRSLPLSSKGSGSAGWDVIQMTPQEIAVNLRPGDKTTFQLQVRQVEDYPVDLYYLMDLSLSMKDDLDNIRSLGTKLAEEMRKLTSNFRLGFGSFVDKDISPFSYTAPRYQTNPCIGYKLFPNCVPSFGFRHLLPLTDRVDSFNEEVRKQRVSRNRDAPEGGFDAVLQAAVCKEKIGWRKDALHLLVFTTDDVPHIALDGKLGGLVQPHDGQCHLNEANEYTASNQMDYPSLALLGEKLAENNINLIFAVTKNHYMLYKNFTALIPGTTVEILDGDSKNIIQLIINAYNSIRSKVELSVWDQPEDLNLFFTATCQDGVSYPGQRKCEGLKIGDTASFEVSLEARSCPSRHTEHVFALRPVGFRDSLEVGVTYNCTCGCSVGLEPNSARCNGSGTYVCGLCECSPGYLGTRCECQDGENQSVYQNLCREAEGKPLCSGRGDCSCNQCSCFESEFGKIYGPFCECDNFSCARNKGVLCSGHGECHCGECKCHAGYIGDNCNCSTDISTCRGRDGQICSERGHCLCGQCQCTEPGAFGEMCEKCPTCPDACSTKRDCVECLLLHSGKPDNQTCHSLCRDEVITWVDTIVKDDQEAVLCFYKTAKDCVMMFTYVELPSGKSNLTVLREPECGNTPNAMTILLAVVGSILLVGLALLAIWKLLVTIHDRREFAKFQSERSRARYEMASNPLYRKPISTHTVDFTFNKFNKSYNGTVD

Row | Compound | IC50 [1, 6] [nM] | IC50 [2, 7] [nM] | IC50 [3, 8] [nM] | IC50 [4, 9] [nM] | stability [5] | IC50 (αvβ5 receptors) [nM] | Ki (αvβ5 receptors) [nM] | IC50 (αvβ3 receptor) [nM] | Ki (αvβ3 receptor) [nM] | IC50 ([1]; human) [nM] | IC50 ([2]; 1 h) [nM] | IC50 ([3]; 1 h) [nM] | IC50 ([4]; human) [nM] | Ki (αvβ5 receptors; [10]) [nM] | IC50 (αvβ5 receptors; [11]) [nM] | Ki (αvβ3 receptor; [12]) [nM] | IC50 (αvβ3 receptor; [13]) [nM]
1 | CC[C@@]1(O)C(=O)OCc2c1cc1n(c2=O)Cc2c-1nc1ccccc1c2C=NOCCNC(=O)OCc1ccc(NC(=O)[C@H](CCCCN)NC(=O)[C@H](Cc2ccccc2)NC(=O)COCCOCCOCC(=O)NCc2ccc(C[C@@H]3NC(=O)[C@@H](Cc4ccccc4)NC(=O)[C@H](CC(=O)O)NC(=O)CNC(=O)[C@H](CCCNC(=N)N)NC3=O)cc2)cc1 [ST3280] | 8.4 ± 0.6 | 2700 ± 300 | 1800 ± 400 | 200 ± 30 | highly unstable | 34.4 ± 0.8 | 23 | 9.7 ± 0.06 | 8.5 |  |  |  |  |  |  |  | 
2 | CC[C@@]1(O)C(=O)OCc2c1cc1n(c2=O)Cc2c-1nc1ccccc1c2C=NOCCNC(=O)OCc1ccc(NC(=O)[C@H](CCCNC(N)=O)NC(=O)[C@H](C)NC(=O)c2cn(CCOCCOCCOCCC(=O)NCc3ccc(C[C@@H]4NC(=O)[C@@H](Cc5ccccc5)NC(=O)[C@H](CC(=O)O)NC(=O)CNC(=O)[C@H](CCCNC(=N)N)NC4=O)cc3)nn2)cc1 [ST4167] | 30 ± 3 | 670 ± 20 | 560 ± 70 | 1000 ± 100 |  | 18.4 ± 0.89 | 13.8 | 11 ± 0.8 | 8.7 |  |  |  |  |  |  |  | 
3 | CC[C@@]1(O)C(=O)OCc2c1cc1n(c2=O)Cc2c-1nc1ccccc1c2C=NOCCNC(=O)OCc1ccc(NC(=O)[C@H](CCCNC(N)=O)NC(=O)[C@H](C)NC(=O)c2cn(CCOCCOCCOCCC(=O)N[C@@H](CCCNC(N)=O)C(=O)NCCOCCOCCOCCC(=O)NCc3ccc(C[C@@H]4NC(=O)[C@@H](Cc5ccccc5)NC(=O)[C@H](CC(=O)O)NC(=O)CNC(=O)[C@H](CCCNC(=N)N)NC4=O)cc3)nn2)cc1 [ST4215] | 9 ± 0.7 | 1700 ± 200 | 4600 ± 800 | 2500 ± 700 |  |  |  |  |  |  |  |  |  |  |  |  | 
4 | CC[C@@]1(O)C(=O)OCc2c1cc1n(c2=O)Cc2c-1nc1ccccc1c2C=NOCCNC(=O)OCc1ccc(NC(=O)[C@H](CCCNC(N)=O)NC(=O)[C@H](C)NC(=O)COCCOCCOCC(=O)NCc2cn(CC(=O)N[C@@H](CCC(=O)NCCOCCOCCOCCC(=O)NCc3ccc(C[C@@H]4NC(=O)[C@@H](Cc5ccc(O)cc5)NC(=O)[C@H](CC(=O)O)NC(=O)CNC(=O)[C@H](CCCNC(=N)N)NC4=O)cc3)C(=O)NCCOCCOCCOCCC(=O)NCc3ccc(C[C@@H]4NC(=O)[C@@H](Cc5ccc(O)cc5)NC(=O)[C@H](CC(=O)O)NC(=O)CNC(=O)[C@H](CCCNC(=N)N)NC4=O)cc3)nn2)cc1 [ST5744TF1] |  |  |  |  |  |  |  |  |  | 8 ± 0.5 | 450 ± 20 | 390 ± 90 | 1000 ± 20 | 2.95 | 3.84 ± 0.12 | 2.4 | 3.01 ± 0.11
5 | Echistatin [reference compound] |  |  |  |  |  |  |  |  |  |  |  |  |  | 0.33 | 0.29 ± 0.02 | 0.26 | 0.28 ± 0.08
